Target: T1, human FAAH (Homo sapiens, UniProt O00519)
T1 construct: expressed in transfected cells; host or cells: H4 cells stably transfected with human FAAH (Geneticin selection); crude membrane homogenates
T1 sequence (O00519 1-579): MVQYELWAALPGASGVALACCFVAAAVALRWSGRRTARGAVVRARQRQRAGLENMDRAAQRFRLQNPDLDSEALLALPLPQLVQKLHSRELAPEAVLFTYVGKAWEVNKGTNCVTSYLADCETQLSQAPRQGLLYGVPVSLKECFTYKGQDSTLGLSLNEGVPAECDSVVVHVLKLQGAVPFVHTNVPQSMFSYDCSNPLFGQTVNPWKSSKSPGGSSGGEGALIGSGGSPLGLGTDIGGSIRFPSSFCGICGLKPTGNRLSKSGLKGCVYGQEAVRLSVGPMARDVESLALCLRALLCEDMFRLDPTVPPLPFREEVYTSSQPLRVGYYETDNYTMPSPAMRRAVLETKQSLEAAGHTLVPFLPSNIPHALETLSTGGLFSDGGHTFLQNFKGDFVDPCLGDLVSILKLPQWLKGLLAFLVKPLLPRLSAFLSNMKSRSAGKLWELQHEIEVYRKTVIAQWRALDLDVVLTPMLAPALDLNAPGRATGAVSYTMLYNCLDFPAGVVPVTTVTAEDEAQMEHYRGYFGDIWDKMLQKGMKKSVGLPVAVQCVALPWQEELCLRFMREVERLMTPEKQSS
Test: Determination of FAAH activity (membrane homogenates of H4-FAAH cells, [3H]-anandamide hydrolysis)
Assay type: biochemical
Conditions: transfected human FAAH, H4-FAAH cell membranes, 10 μM anandamide, room temperature, one hour
Description: Homogenates of crude membranes were prepared from H4 cells that express transfected human FAAH (H4-FAAH cells). Briefly, cells were grown in DMEM supplemented with 10% FBS and Geneticin at a final concentration of 500 μg/ml (Gibco BRL, Rockville, Md.). Confluent cultures of H4-FAAH cells were rinsed twice with phosphate-buffered saline [138 mM NaCl, 4.1 mM KCl, 5.1 mM Na2PO4, 1.5 mM KH2PO4 (pH 7.5), 37° C.] and incubated for 5-10 min. at 4° C. in lysis buffer [1 mM sodium bicarbonate]. Cells were transferred from plates to polypropylene tubes (16×100 mm), homogenized and centrifuged at 32,000×g for 30 min. Pellets were resuspended by homogenization in lysis buffer and centrifuged at 32,000×g for 30 min. Pellets were resuspended in lysis buffer (15-20 μg protein/ml) then stored at −80° C. until needed. On the day of an experiment, membranes were diluted to 2.67 μg protein/ml in 125 mM Tris-Cl, pH 9.0
Activity of FAAH was measured using a modification of the method described by Omeir et al., 1995 (Life Sci 56:1999, 1995). Membrane homogenates (240 ng protein) were incubated at room temperature for one hour with 1.67 nM anandamide [ethanolamine 1-^3H] (American Radiolabeled Chemical Inc., St Louis, Mo.) and 10 μM anandamide (Sigma/RBI, St. Louis, Mo.) in the absence and presence of inhibitors. The reaction was stopped by the addition of 1 volume of a solution of methanol and dichloroethane (1:1). The mixture was shaken and then centrifuged at 1000×g for 15 min. to separate the aqueous and organic phases. An aliquot of the aqueous phase, containing [^3H]-ethanolamine was withdrawn and counted by scintillation spectroscopy. Data were expressed as the percentage of [^3H]-ethanolamine formed versus vehicle, after subtraction of the background radioactivity determined in the presence of 10 μM arachidonyl trifluoromethyl ketone (ATFMK), an inhibitor of FAAH. IC50 values were determined using a four-parameter logistic equation for dose-response curves.

SMILES | IC50 [µM]
Cc1nc(-c2ccccc2)c(-c2ccccc2)n1CCCCCCCNC(=O)Oc1ccc(F)cc1F [Example 23, [7-(2-Methyl-4,5-diphenyl-imidazol-1-yl)-heptyl]-carbamic acid 2,4-difluoro-phenyl ester] | 0.01 to 0.1
Cc1nc(-c2ccccc2)c(-c2ccccc2)n1CCOc1ccc(NC(=O)Oc2ccccc2F)cc1 [Example 61, {4-[2-(2-Methyl-4,5-diphenyl-imidazol-1-yl)-ethoxy]-phenyl}-carbamic acid 2-fluoro-phenyl ester] | 1 to 10
Cc1ccccc1OC(=O)NCCCCCCn1c(C)nc(-c2ccccc2)c1-c1ccccc1 [Example 14, [6-(2-Methyl-4,5-diphenyl-imidazol-1-yl)-hexyl]-carbamic acid o-tolyl ester] | < 0.01
Cc1nc(-c2ccccc2)c(-c2ccccc2)n1CCCCCCNC(=O)O/N=C/c1ccc([N+](=O)[O-])cc1 [Example 50, 4-Nitrobenzaldehyde, O-{6-(2-methyl-4,5-diphenyl-1H-imidazol-1-yl)hexylaminocarbonyl]oxime] | 0.01 to 0.1
Cc1nc(-c2ccccc2)c(-c2ccccc2)n1CCCCCNC(=O)Oc1ccccc1F [Example 34, [5-(2-Methyl-4,5-diphenyl-imidazol-1-yl)-pentyl]-carbamic acid 2-fluoro-phenyl ester] | 0.01 to 0.1
Cc1nc(-c2ccccc2)c(-c2ccccc2)n1CCCCCCNC(=O)O/N=C/c1cccnc1 [Example 51, 3-Pyridinecarboxaldehyde, O-[6-(2-methyl-4,5-diphenyl-1H-imidazol-1-yl)hexylaminocarbonyl]oxime] | 0.01 to 0.1
COc1ccccc1OC(=O)NCCCCCCn1c(C)nc(-c2ccccc2)c1-c1ccccc1 [Example 17, [6-(2-Methyl-4,5-diphenyl-imidazol-1-yl)-hexyl]-carbamic acid 2-methoxy-phenyl ester] | 0.1 to 1
Cc1nc(-c2ccccc2)c(-c2ccccc2)n1CCOc1ccc(NC(=O)Oc2ccc(F)cc2)cc1 [Example 62, {4-[2-(2-Methyl-4,5-diphenyl-imidazol-1-yl)-ethoxy]-phenyl}-carbamic acid 4-fluoro-phenyl ester] | 1 to 10
CCc1nc(-c2ccccc2)c(-c2ccccc2)n1CCCCCCNC(=O)OC(C)(C)C [Example 2, [6-(2-Ethyl-4,5-diphenyl-imidazol-1-yl)-hexyl]-carbamic acid tert-butyl ester] | 1 to 10
Cc1nc(-c2ccccc2)c(-c2ccccc2)n1CCCCCC(C)NC(=O)Oc1ccccc1F (stereo not drawn) [Example 71, [1-Methyl-6-(2-methyl-4,5-diphenyl-imidazol-1-yl)-hexyl]-carbamic acid 2-fluoro-phenyl ester] | < 0.01
Cc1nc(-c2ccccc2)c(-c2ccccc2)n1CCCCCC(NC(=O)Oc1ccccc1F)C(C)C (stereo not drawn) [Example 73, [1-Isopropyl-6-(2-methyl-4,5-diphenyl-imidazol-1-yl)-hexyl]-carbamic acid 2-fluoro-phenyl ester] | 0.1 to 1
COC(=O)NCCCCCCn1c(C)nc(-c2ccccc2)c1-c1ccccc1 [Example 8, [6-(2-Methyl-4,5-diphenyl-imidazol-1-yl)-hexyl]-carbamic acid methyl ester] | 0.1 to 1
Cc1nc(-c2ccccc2)c(-c2ccccc2)n1CCCCCCNC(=O)OCc1ccccc1 [Example 5, [6-(2-Methyl-4,5-diphenyl-imidazol-1-yl)-hexyl]-carbamic acid benzyl ester] | 1 to 10
COc1ccccc1OC(=O)NCCCCCCCn1c(C)nc(-c2ccccc2)c1-c1ccccc1 [Example 29, [7-(2-Methyl-4,5-diphenyl-imidazol-1-yl)-heptyl]-carbamic acid 2-methoxy-phenyl ester] | 0.01 to 0.1
Cc1nc(-c2ccccc2)c(-c2ccccc2)n1CCCCCNC(=O)Oc1ccc(F)cc1F [Example 33, [5-(2-Methyl-4,5-diphenyl-imidazol-1-yl)-pentyl]-carbamic acid 2,4-difluoro-phenyl ester] | 0.01 to 0.1
COc1ccc(OC(=O)Nc2ccc(OCCn3c(C)nc(-c4ccccc4)c3-c3ccccc3)cc2)cc1 [Example 64, {4-[2-(2-Methyl-4,5-diphenyl-imidazol-1-yl)-ethoxy]-phenyl}-carbamic acid 4-methoxy-phenyl ester] | 1 to 10
Cc1nc(-c2ccc(F)cc2)c(-c2ccc(F)cc2)n1CCCCCCNC(=O)Oc1ccccc1F [Example 43, {6-[4,5-Bis-(4-fluoro-phenyl)-2-methyl-imidazol-1-yl]-hexyl}-carbamic acid 2-fluoro-phenyl ester] | < 0.01
Cc1nc(-c2ccccc2)c(-c2ccccc2)n1CCCCCCNC(=O)Oc1ccccc1 [Example 9] | < 0.01
Cc1nc(-c2ccccc2)c(-c2ccccc2)n1CCOc1ccc(NC(=O)Oc2ccccc2)cc1 [Example 60, {4-[2-(2-Methyl-4,5-diphenyl-imidazol-1-yl)-ethoxy]-phenyl}-carbamic acid phenyl ester] | 1 to 10
Cc1nc(-c2ccccc2)c(-c2ccccc2)n1CCCCCCNC(=O)O/N=C/c1ccc(F)cc1 [Example 47, 4-Fluorobenzaldehyde,O-[6-(2-methyl-4,5-diphenyl-1H-imidazol-1-yl)hexylaminocarbonyl]oxime] | 0.01 to 0.1
CCOC(=O)NCCCCCCn1c(C)nc(-c2ccccc2)c1-c1ccccc1 [Example 45, [6-(2-Methyl-4,5-diphenyl-imidazol-1-yl)-hexyl]-carbamic acid ethyl ester] | 0.1 to 1
Cc1nc(-c2ccccc2)c(-c2ccccc2)n1CCCCCNC(=O)Oc1ccc(F)cc1 [Example 32, [5-(2-Methyl-4,5-diphenyl-imidazol-1-yl)-pentyl]-carbamic acid 4-fluoro-phenyl ester] | 0.01 to 0.1
Cc1nc(-c2ccccc2)c(-c2ccccc2)n1CCCCCNC(=O)Oc1ccc(C#N)cc1 [Example 38, [5-(2-Methyl-4,5-diphenyl-imidazol-1-yl)-pentyl]-carbamic acid 4-cyano-phenyl ester] | 0.01 to 0.1
COc1ccc(OC(=O)NCCCCCCCn2c(C)nc(-c3ccccc3)c2-c2ccccc2)cc1 [Example 25, [7-(2-Methyl-4,5-diphenyl-imidazol-1-yl)-heptyl]-carbamic acid 4-methoxy-phenyl ester] | 0.01 to 0.1
Cc1nc(-c2ccccc2)c(-c2ccccc2)n1CCCCCNC(=O)Oc1ccccc1 [Example 31, [5-(2-Methyl-4,5-diphenyl-imidazol-1-yl)-pentyl]-carbamic acid phenyl ester] | 0.01 to 0.1
Cc1nc(-c2ccc(F)cc2)c(-c2ccc(F)cc2)n1CCCCCCNC(=O)Oc1c(F)cccc1F [Example 44, {6-[4,5-Bis-(4-fluoro-phenyl)-2-methyl-imidazol-1-yl]-hexyl}-carbamic acid 2,6-difluoro-phenyl ester] | 0.01 to 0.1
Cc1nc(-c2ccccc2)c(-c2ccccc2)n1CCCCCCNC(=O)Oc1ccc(C#N)cc1 [Example 15, [6-(2-Methyl-4,5-diphenyl-imidazol-1-yl)-hexyl]-carbamic acid 4-cyano-phenyl ester] | 0.01 to 0.1
CC(C)=NOC(=O)NCCCCCCn1c(C)nc(-c2ccccc2)c1-c1ccccc1 [Example 6, 2-Propanone,O-[6-(2-methyl-4,5-diphenyl-1H-imidazol-1-yl)hexylaminocarbonyl]oxime] | 0.01 to 0.1
Cc1nc(-c2ccccc2)c(-c2ccccc2)n1CCCCCCNC(=O)O/N=C/c1ccccc1[N+](=O)[O-] [Example 48, 2-Nitrobenzaldehye, O-[6-(2-methyl-4,5-diphenyl-1H-imidazol-1-yl)hexylaminocarbonyl]oxime] | 0.01 to 0.1
COc1cccc(OC)c1OC(=O)NCCCCCCn1c(C)nc(-c2ccccc2)c1-c1ccccc1 [Example 16, [6-(2-Methyl-4,5-diphenyl-imidazol-1-yl)-hexyl]-carbamic acid 2,6-dimethoxy-phenyl ester] | 0.1 to 1

From patent publication USRE39634E1, “Bisarylimidazoly fatty acid amide hydrolase inhibitors” (Bristol-Myers Squibb Company, priority 2001, dated 2007)
